Measured values: patent US8106091B2, “Inhibitors of IKK-beta serine-threonine protein kinase” (Chroma Therapeutics Ltd., priority 2006, dated 2012)

How the values were obtained:
[1] = tested on: human whole blood; assay: LPS-stimulation of human whole blood, TNF-α release; type: cell-based; settings: LPS 100 ng/ml, 6 hrs, inhibitor added 2 hrs before, read-out: Inhibitor activity versus human whole blood TNFα release
Experimental: LPS-Stimulation of Human Whole Blood
Whole blood was taken by venous puncture using heparinised vacutainers (Becton Dickinson) and diluted in an equal volume of RPMI1640 tissue culture media (Sigma). 100 μl was plated in V-bottomed 96 well tissue culture treated plates. 2 hrs after the addition of the inhibitor in 100 μl of RPMI1640 media, the blood was stimulated with LPS (E coli strain 005:B5, Sigma) at a final concentration of 100 ng/ml and incubated at 37° C. in 5% CO2 for 6 hrs. TNF-α levels were measured from cell-free supernatants by sandwich ELISA (R&D Systems #QTA00B)

[2] = molecular target: T1, IKBKB (IKKβ) (Homo sapiens, UniProt O14920); assay: IKKβ enzyme assay (Z'-LYTE, Invitrogen); type: biochemical; settings: ATP at or close to Km; read-out: Inhibitor activity versus IKKβ
T1 construct: purchased Invitrogen (Paisley, UK)
T1 sequence (O14920 1-756): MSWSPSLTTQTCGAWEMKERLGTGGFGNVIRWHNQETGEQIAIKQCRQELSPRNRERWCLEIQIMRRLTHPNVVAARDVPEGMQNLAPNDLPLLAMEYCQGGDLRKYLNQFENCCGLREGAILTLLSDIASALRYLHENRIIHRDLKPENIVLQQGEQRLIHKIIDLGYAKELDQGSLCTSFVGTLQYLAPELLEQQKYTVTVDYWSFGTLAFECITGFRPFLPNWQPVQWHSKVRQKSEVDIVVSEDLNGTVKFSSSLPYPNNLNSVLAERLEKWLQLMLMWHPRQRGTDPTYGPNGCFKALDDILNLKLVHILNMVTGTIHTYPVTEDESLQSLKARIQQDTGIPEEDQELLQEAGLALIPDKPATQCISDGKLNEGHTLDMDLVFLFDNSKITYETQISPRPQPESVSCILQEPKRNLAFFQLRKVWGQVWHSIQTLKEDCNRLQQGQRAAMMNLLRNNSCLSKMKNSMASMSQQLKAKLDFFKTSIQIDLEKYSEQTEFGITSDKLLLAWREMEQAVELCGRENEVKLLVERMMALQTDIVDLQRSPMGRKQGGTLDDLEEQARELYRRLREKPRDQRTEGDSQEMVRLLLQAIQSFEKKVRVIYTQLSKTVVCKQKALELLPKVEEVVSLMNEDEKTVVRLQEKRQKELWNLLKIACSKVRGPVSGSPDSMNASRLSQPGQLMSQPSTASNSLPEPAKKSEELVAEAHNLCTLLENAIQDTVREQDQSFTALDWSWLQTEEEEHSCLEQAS
Experimental: The ability of compounds to inhibit IKKβ kinase activity was measured in an assay performed by Invitrogen (Paisley, UK). The Z′-LYTE™ biochemical assay employs a fluorescence-based, coupled-enzyme format and is based on the differential sensitivity of phosphorylated and non-phosphorylated peptides to proteolytic cleavage. The peptide substrate is labelled with two fluorophores—one at each end—that make up a FRET pair. In the primary reaction, the kinase transfers the gamma-phosphate of ATP to a single serine or threonine residue in a synthetic FRET-peptide. In the secondary reaction, a site-specific protease recognizes and cleaves non-phosphorylated FRET-peptides. Phosphorylation of FRET-peptides suppresses cleavage by the Development Reagent. Cleavage disrupts FRET between the donor (i.e., coumarin) and acceptor (i.e. fluorescein) fluorophores on the FRET-peptide, whereas uncleaved, phosphorylated FRET-peptides maintain FRET. A […] method, which calculates the ratio (the Emission Ratio) of donor emission to acceptor emission after excitation of the donor fluorophore at 400 nm, is used to quantitate reaction progress.
The final 10 μL Kinase Reaction consists of 0.9-8.0 ng IKBKB (IKKβ), 2 μM Ser/Thr 05 Peptide and ATP in 50 mM HEPES pH 7.5, 0.01% BRIJ-35, 10 mM MgCl2, 1 mM EGTA. The assay is performed at an ATP concentration at, or close to the Km. After the 60 minute Kinase Reaction incubation at room temperature, 5 μL of a 1:128 dilution of Development Reagent is added. The assay plate is incubated for a further 60 minutes at room temperature and read on a fluorescence plate reader.
Duplicate data points are generated from a ⅓ log dilution series of a stock solution of test compound in DMSO. Nine dilutions steps are made from a top concentration of 10 μM, and a ‘no compound’ blank is included. Data is collected and analysed using XLfit software from IDBS. The dose response curve is curve fitted to model number 205 (sigmoidal dose-response model). From the curve generated, the concentration giving 50% inhibition is determined and reported.

[3] = tested on: THP-1 cells; assay: LPS-stimulation of THP-1 cells, TNF-α release; type: cell-based; settings: Homo sapiens, LPS 1 μg/ml, 6 hrs, inhibitor added 2 hrs before, read-out: Inhibitor activity versus THP-1 TNFα release
Experimental: LPS-Stimulation of THP-1 Cells
THP-1 cells were plated in 100 μl at a density of 4×10^4 cells/well in V-bottomed 96 well tissue culture treated plates and incubated at 37° C. in 5% CO2 for 16 hrs. 2 hrs after the addition of the inhibitor in 100 μl of tissue culture media, the cells were stimulated with LPS (E coli strain 005:B5, Sigma) at a final concentration of 1 μg/ml and incubated at 37° C. in 5% CO2 for 6 hrs. TNF-α levels were measured from cell-free supernatants by sandwich ELISA (R&D Systems #QTA00B)

| IC50 [1] [µM] | IC50 [2] [nM] | IC50 [3] [nM] | SMILES |
| --- | --- | --- | --- |
| 1 to 5 | < 1000 | < 1000 | NC(=O)Nc1sc(-c2ccc(OCC[C@@H](N)C(=O)OC3CCCC3)cc2)cc1C(N)=O [Example 1, Cyclopentyl O-{4-[4-carbamoyl-5-(carbamoylamino)-2-thienyl]phenyl}-D-homoserinate] |
| > 5 | < 1000 | 1000 to 5000 | NC(=O)Nc1sc(-c2ccc(OCCC[C@H](N)C(=O)OC3CCCC3)cc2)cc1C(N)=O [Example 3, Cyclopentyl 5-{4-[4-carbamoyl-5-(carbamoylamino)-2-thienyl]phenoxy}-L-norvalinate] |
| > 5 | < 1000 | < 1000 | Cc1cc(OCC[C@H](N)C(=O)OC2CCCC2)ccc1-c1cc(C(N)=O)c(NC(N)=O)s1 [Example 5, Cyclopentyl O-{4-[4-carbamoyl-5-(carbamoylamino)-2-thienyl]-3-methylphenyl}-L-homoserinate] |
| > 5 | < 1000 | < 1000 | Cc1cc(-c2cc(C(N)=O)c(NC(N)=O)s2)ccc1OCC[C@H](N)C(=O)OC1CCCC1 [Example 6, Cyclopentyl O-{4-[4-carbamoyl-5-(carbamoylamino)-2-thienyl]-2-methylphenyl}-L-homoserinate] |
| > 5 | < 1000 | < 1000 | NC(=O)Nc1sc(-c2ccc(OCC[C@H](N)C(=O)OC3CCCC3)cc2Cl)cc1C(N)=O [Example 7, Cyclopentyl O-{4-[4-carbamoyl-5-(carbamoylamino)-2-thienyl]-3-chlorophenyl}-L-homoserinate] |
| > 5 | < 1000 | 1000 to 5000 | NC(=O)Nc1sc(-c2ccc(OCC[C@H](N)C(=O)OC3CCCC3)c(Cl)c2)cc1C(N)=O [Example 8, Cyclopentyl O-{4-[4-carbamoyl-5-(carbamoylamino)-2-thienyl]-2-chlorolphenyl}-L-homoserinate] |
| < 1 | < 1000 | < 1000 | NC(=O)Nc1sc(-c2ccc(/C=C/C[C@H](N)C(=O)OC3CCCC3)cc2)cc1C(N)=O [Example 9, Cyclopentyl (2S,4E)-2-amino-5-{4-[4-carbamoyl-5-(carbamoylamino)-2-thienyl]phenyl}pent-4-enoate] |
| < 1 | < 1000 | < 1000 | NC(=O)Nc1sc(-c2ccc(/C=C/C[C@@H](N)C(=O)OC3CCCC3)cc2)cc1C(N)=O [Example 10, Cyclopentyl (2R,4E)-2-amino-5-{4-[4-carbamoyl-5-(carbamoylamino)-2-thienyl]phenyl}pent-4-enoate] |
| 1 to 5 | < 1000 | < 1000 | NC(=O)Nc1sc(-c2ccc(CCC[C@H](N)C(=O)OC3CCCC3)cc2)cc1C(N)=O [Example 11, Cyclopentyl 5-{4-[4-carbamoyl-5-(carbamoylamino)-2-thienyl]phenyl}-L-norvalinate] |
| 1 to 5 | < 1000 | < 1000 | NC(=O)Nc1sc(-c2ccc(/C=C/C[C@H](N)C(=O)OC3CCCC3)cc2Cl)cc1C(N)=O [Example 13, Cyclopentyl (2S,4E)-2-amino-5-{4-[4-carbamoyl-5-(carbamoylamino)-2-thienyl]-3-chlorophenyl}pent-4-enoate] |
| – | < 1000 | 1000 to 5000 | NC(=O)Nc1sc(-c2ccc(N(CC[C@H](N)C(=O)OC3CCCC3)Cc3ccccc3)cc2)cc1C(N)=O [Example 21, Cyclopentyl (2S)-2-amino-4-(benzyl{4-[4-carbamoyl-5-(carbamoylamino)thiophen-2-yl]phenyl}amino)butanoate] |
| – | < 1000 | 1000 to 5000 | NC(=O)Nc1cc(-c2ccc(OCC[C@H](N)C(=O)OC3CCCC3)cc2)sc1C(N)=O [Example 23, Cyclopentyl O-{4-[5-carbamoyl-4-(carbamoylamino)-2-thienyl]phenyl}-L-homoserinate] |
| – | < 1000 | > 5000 | NC(=O)Nc1cc(-c2ccc(C[C@H](N)C(=O)OC3CCCC3)cc2)sc1C(N)=O [Example 24, Cyclopentyl 4-[5-carbamoyl-4-(carbamoylamino)-2-thienyl]-L-phenylalaninate] |
